Assay results from patent publication US8034839B2, “Method of treating ocular allergy” (Alcon Research, Ltd., priority 2005, dated 2011).
Marks after values point to notes of the source that are not given here.

Assays:
[1] = system: neutrophils; settings: disclosed by Lee et al., Biochem. Biophys. Res. Commun. 1991; cited from earlier work
[2] = system: conjunctival EPO activity; assay: Mouse late-phase allergy model (OVA-induced allergic conjunctivitis), conjunctival EPO activity assay; assay type: in vivo, mouse (female BALB/c); settings: for EPO Activity (ng/ml/mg tissue) ± S.D.: single 5 μl topical drop O.D. BID, conjunctival EPO activity at 24 hrs post-challenge, mean ± S.D.
Protocol: Active Sensitization and Induction of Allergic Conjunctivitis (AC)
Female BALB/c mice, 6 to 9 months old (Charles River Labs), were given a single intraperitoneal injection of 100 μg chicken ovalbumin (OVA; Sigma) which had been absorbed to 5 mg of alum (Pierce Chemical) as an adjuvant or 5 mg alum only (unsensitized group). On day 14 after sensitization, all mice were challenged with a single topical drop O.D. of 1 mg OVA dissolved in 5 μl PBS.
Drugs or vehicles were administered to mice as a single 5 μl drop O.D. at 60 min before challenge and again at 16 hrs after challenge (BID dosing). Mice were euthanized at 24 hrs after challenge.
Mice were euthanized at 24 hrs after topical challenge and upper and lower eyelids containing palpebral conjunctiva were excised and immediately frozen on dry ice. Samples were weighed frozen and then thawed and homogenized on ice in 2 ml of 50 mM HEPES buffer, pH 6.5. Samples were pelleted at 4000 rpm for 20 min at 4° C. and supernatants were discarded. To each pellet, 1 ml of 0.5% cetyltrimethylammonium chloride (CTAC) was added and samples were vortexed vigorously. Samples were then subjected to three freeze-thaw cycles between −80° C. and 37° C. After final thaw, samples were sonicated on ice for 15-30 sec and pelleted at 4000 rpm for 20 min at 4° C. EPO activity assay was performed on supernatants.
For the EPO activity assay, 75 μl of each sample were added in triplicate to wells of a 96-well clear flat-bottomed microplate. 75 μl of EPO substrate solution [6 mM o-phenylenediamine (OPD), 8.8 mM H2O2, and 6 mM KBr in 50 mM HEPES, pH 6.5] were then added to each well using a multichannel pipetter. The reaction was allowed to run for 3 min and was stopped by addition of 150 μl of 4M H2SO4. Optical density at 490 nm (OD490) was read on a Bio-Tek Synergy. HT plate reader. […] 75 μl triplicates of each standard were used on each run of the assay. Linear regression was determined for the resulting plot of [EPO] vs OD490. Final [EPO] in each sample was determined by solving for x in the equation y=m*x+b, where y=OD490, m=[…].
Groups of means were compared using Student's unpaired t-test or Dunnett's t-test where appropriate. […] Data are expressed as mean±standard deviation.

Structure (SMILES) | inhibition of LTB4-induced chemotaxis of neutrophils [1] | inhibition of conjunctival EPO activity (in words) ([2]; all three doses (0.001%, 0.01%, and 0.1% solutions), 24 hrs post-challenge, efficacy comparable to 0.1% dexamethasone) | EPO Activity (ng/ml/mg tissue) ± S.D. ([2]; dose 0.001%) | EPO Activity (ng/ml/mg tissue) ± S.D. ([2]; dose 0.01%) | EPO Activity (ng/ml/mg tissue) ± S.D. ([2]; dose 0.1%)
CCCCC[C@H](O)[C@H](O)CO [compound 2] | as potently as lipoxin A4 |  |  |  | 
COC(=O)CCC[C@H](O)[C@H](O)CO [compound 1] | as potently as lipoxin A4 | significantly inhibited | 5.2 ± 2.5^c,d ng/ml/mg tissue | 4.8 ± 1.2^c,d ng/ml/mg tissue | 3.2 ± 1.0^c,d ng/ml/mg tissue
CCCCC[C@H](O)/C=C/C=C\C=C\C=C\[C@@H](O)[C@@H](O)CCCC(=O)O [lipoxin A4, Lipoxin A4, reference compound] | inhibit |  |  |  | 
C[C@@H]1C[C@H]2[C@@H]3CCC4=CC(=O)C=C[C@]4(C)[C@@]3(F)[C@@H](O)C[C@]2(C)[C@@]1(O)C(=O)CO [dexamethasone, reference compound] |  |  |  |  | 4.0 ± 0.5^c ng/ml/mg tissue
